Reference: PMC8958510 (Journal of Medicinal Chemistry, 2022)
≈ marks a conversion by molar mass, not a printed value. Like-named read-outs stand apart in the source and are kept apart here.

Legend:
recombinant mouse sEH = molecular target: T1, recombinant mouse sEH (Mus musculus, UniProt P34914); conditions: read-out: msEH IC50, average of three replicates
T1 sequence (P34914 1-554): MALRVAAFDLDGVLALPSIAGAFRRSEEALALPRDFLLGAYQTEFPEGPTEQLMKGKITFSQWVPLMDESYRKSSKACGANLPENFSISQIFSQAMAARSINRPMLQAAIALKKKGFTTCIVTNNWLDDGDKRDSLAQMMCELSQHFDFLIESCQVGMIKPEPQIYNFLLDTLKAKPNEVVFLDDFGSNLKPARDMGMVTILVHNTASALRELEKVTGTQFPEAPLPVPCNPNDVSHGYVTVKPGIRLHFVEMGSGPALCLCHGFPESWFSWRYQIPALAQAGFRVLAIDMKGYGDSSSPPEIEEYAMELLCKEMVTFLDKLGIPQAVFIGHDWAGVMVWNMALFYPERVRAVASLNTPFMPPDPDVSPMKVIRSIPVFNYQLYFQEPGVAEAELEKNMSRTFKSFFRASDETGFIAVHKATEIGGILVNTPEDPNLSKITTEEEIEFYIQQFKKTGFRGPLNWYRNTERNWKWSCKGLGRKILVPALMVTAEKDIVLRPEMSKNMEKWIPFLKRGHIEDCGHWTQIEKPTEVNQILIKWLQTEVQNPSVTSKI
Procedure: (§1) Human and mouse soluble epoxide hydrolase inhibition assay. The inhibitory activity of
(§2) the target compounds toward human and mouse sEH was determined by a fluorescence-based
(§3) assay, using purified recombinant human or mouse sEH proteins and CMNPC as a fluorescent
(§4) substrate.6 The enzymes were incubated at 30 °C with the inhibitors ([I]final = 0.4-100,000
(§5) nM) for 5 min in 100 mM sodium phosphate buffer (200 µL, pH 7.4) containing 0.1 mg mL‒1
(§6) of BSA and 1% of DMSO. The substrate (CMNPC) was then added ([S]final = 5 µM). Activity
(§7) was assessed by measuring the appearance of the fluorescent 6-methoxynaphthaldehyde
(§8) (Molecular Devices). Results were obtained by regression analysis from a linear region of the
(§9) curve and are given as IC50 values, i.e., the concentration of the compound that reduces the
(§10) sEH activity by 50%. All measurements were performed in triplicate and the mean is

recombinant human sEH = molecular target: T2, recombinant human sEH (Homo sapiens, UniProt P34913); test: Human soluble epoxide hydrolase inhibition, fluorescence-based assay (CMNPC substrate); type: biochemical; conditions: for IC50: recombinant human sEH, average of three replicates, read-out: hsEH IC50; for higher hsEH potency relative to TPPU: ratio of IC50s vs TPPU
T2 sequence (P34913 1-555): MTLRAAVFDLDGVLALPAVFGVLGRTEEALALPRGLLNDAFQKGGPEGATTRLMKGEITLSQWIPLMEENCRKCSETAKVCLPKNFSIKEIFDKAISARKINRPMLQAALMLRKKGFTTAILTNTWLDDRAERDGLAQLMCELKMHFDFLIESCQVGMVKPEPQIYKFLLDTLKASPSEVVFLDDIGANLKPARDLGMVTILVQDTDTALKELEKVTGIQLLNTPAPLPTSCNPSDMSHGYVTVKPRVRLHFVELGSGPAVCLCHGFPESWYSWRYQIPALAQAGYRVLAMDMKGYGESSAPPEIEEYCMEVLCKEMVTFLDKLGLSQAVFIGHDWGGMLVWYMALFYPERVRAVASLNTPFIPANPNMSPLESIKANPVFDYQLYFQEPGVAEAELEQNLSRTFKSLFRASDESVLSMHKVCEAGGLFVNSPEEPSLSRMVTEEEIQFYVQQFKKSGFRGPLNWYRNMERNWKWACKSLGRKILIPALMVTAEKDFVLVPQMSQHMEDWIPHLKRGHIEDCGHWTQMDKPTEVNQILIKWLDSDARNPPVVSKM
Procedure: as §1, §2, §3, §4, §5, §6, §7, §8, §9, §10

recombinant mouse AChE = molecular target: T3, recombinant mouse AChE (Mus musculus, UniProt P21836); test: Mouse acetylcholinesterase inhibition, Ellman's method; type: biochemical; conditions: recombinant mouse AChE; mean ± SEM; read-out: mAChE IC50
T3 construct: purchased Bio-Techne, Milan, Italy
T3 sequence (P21836 32-614): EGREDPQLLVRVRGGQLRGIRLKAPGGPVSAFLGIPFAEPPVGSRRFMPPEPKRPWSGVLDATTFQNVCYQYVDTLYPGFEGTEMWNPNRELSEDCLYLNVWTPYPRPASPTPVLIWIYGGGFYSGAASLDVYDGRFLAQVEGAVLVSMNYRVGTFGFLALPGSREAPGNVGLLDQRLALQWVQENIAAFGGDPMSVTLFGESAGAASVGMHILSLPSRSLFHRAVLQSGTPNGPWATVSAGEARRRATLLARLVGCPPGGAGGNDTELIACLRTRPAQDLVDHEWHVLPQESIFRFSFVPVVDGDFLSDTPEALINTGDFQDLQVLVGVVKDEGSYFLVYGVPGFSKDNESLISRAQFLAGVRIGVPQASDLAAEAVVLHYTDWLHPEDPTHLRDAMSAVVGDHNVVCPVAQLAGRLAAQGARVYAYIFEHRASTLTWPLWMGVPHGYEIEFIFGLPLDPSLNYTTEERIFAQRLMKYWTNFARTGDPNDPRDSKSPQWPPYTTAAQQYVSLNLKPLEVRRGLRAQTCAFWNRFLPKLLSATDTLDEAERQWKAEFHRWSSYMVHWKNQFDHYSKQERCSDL
Procedure: (§11) Human and mouse acetylcholinesterase and human butyrylcholinesterase inhibition
(§12) assay. The inhibitory activity of the target compounds toward recombinant human AChE
(§13) (Sigma-Aldrich, Milan, Italy), recombinant mouse AChE (Bio-Techne, Milan, Italy) and
(§14) human serum BChE (Sigma-Aldrich, Milan, Italy) was assessed by Ellman’s method,8 using
(§15) Stock solutions of the AChEs were prepared by
(§16) dissolving enzyme lyophilized powder (hAChE) or diluting the enzyme commercial solution
(§17) (mAChE) in 0.1 M potassium phosphate (pH 8.0) containing 0.1% Triton X-100, whereas the
(§18) stock solution of hBChE was prepared in 0.1% aq. gelatin and the stock solutions of the
(§19) compounds to be tested were made in MeOH (2-4 mM). The assay solution consisted of 0.02
(§20) unit mL‒1 of the enzyme, 340 M 5,5’-dithiobis(2-nitrobenzoic acid), and 550 M of the
(§21) substrate acetylthiocholine iodide (for AChE assay) or butyrylthiocholine iodide (for BChE
(§22) assay) in 0.1 M potassium phosphate (pH 8.0). Blank solutions containing all components
(§23) except the enzymes were prepared to account for the non-enzymatic hydrolysis of the
(§24) Prior the addition of the substrate, the assay solutions were incubated at 37 °C for 20 min.
(§25) After the addition of the substrate, cuvettes were rapidly transferred into a Jasco V-530
(§26) double beam spectrophotometer equipped with thermostated cuvette holders (37 °C), in order
(§27) for 240 s. For each tested compound, five increasing concentrations were assayed in order to
(§28) achieve inhibition percentages of 20‒80%. Each concentration was assayed in triplicate. IC50
(§29) values were calculated from the inhibition plot (% inhibition vs log[inhibitor]) and are
(§30) expressed as mean ± SEM. Each IC50 value is the average of at least two experiments, each

human serum BChE = molecular target: T4, human serum BChE (Homo sapiens, UniProt P06276); type: biochemical; conditions: read-out: hBChE IC50
T4 construct: human serum BChE (Sigma-Aldrich, Milan, Italy) was assessed by Ellman’s method; purchased Sigma-Aldrich, Milan, Italy; host or cells: human serum
Procedure: as §11, §12, §13, §14, §15, §16, §17, §18, §19, §20, §21, §22, §23, §24, §25, §26, §27, §28, §29, §30

recombinant human AChE = molecular target: T5, recombinant human AChE (Homo sapiens, UniProt P22303); type: biochemical; conditions: for IC50: recombinant human AChE, mean ± SEM, read-out: hAChE IC50
T5 construct: purchased Sigma-Aldrich, Milan, Italy
Procedure: as §11, §12, §13, §14, §15, §16, §17, §18, §19, §20, §21, §22, §23, §24, §25, §26, §27, §28, §29, §30

[1] = molecular target: PAS of Electrophorus electricus AChE (EeAChE) (Electrophorus electricus, UniProt O42275); conditions: read-out: KD of propidium for PAS; value assumed for the calculation; ref 11 (Supporting Information); cited from earlier work
[2] = PAMPA-BBB assay for brain permeability; conditions: for Papp: pig, PAMPA; for BBB permeation class: PAMPA-BBB prediction
Procedure: PAMPA-BBB assay for brain permeability. The brain permeability (Pe) of the target
compounds was assessed by an in vitro parallel artificial membrane permeability assay for
blood‒brain barrier penetration (PAMPA-BBB assay),12 which uses a lipid extract of porcine
brain membrane as a BBB model. The assay was validated by comparing experimental and
reported Pe values of a set of fourteen commercial drugs (Table S2 of the Supporting
On the basis of this equation and the limits established by Di et al. for BBB
independent experiments, each performed in triplicate, were carried out for each compound.

[3] = Microsomal stability, human liver microsomes; type: in vitro ADME; conditions: human, liver microsomes (pooled), pH 7.4; for remaining at 1 h: after 1 h of incubation at 37 °C, read-out: % remaining compound, human microsomes
Procedure: (§31) Microsomal stability screen. The microsomal stability of the target compounds was
(§32) determined at the Innopharma Drug Screening and Pharmacogenomics Platform (Santiago de
(§33) Compostela, Spain). The human, rat and mice pooled microsomes, with a protein content of 20 mg mL‒1, were purchased from Tebu-Xenotech. The compounds were incubated in a 96-well microplate at 37 °C with the microsomes in 50 mM phosphate buffer (pH = 7.4) containing as cofactors 30 mM MgCl2, 10 mM NADP, 100 mM glucose-6-phosphate and 40
(§34) Samples (75 µL) were taken from each well at 0, 10, 20, 40 and 60 min and transferred to a microplate. 4 °C Acetonitrile (75 µL) and internal standard (rolipram) were then added for inactivating the microsomes, and water with 0.5% formic acid (30 µL) was subsequently added for improving the chromatographic conditions, keeping the mixtures at 4 °C. The plate was centrifuged at 46,000 g for 30 min at 15 °C and supernatants were taken and analyzed in a UPLC-MS/MS system (UPLC QSM Waters Acquity) using reverse phase Acquity UPLC® HSST3 1.7 μm (2.1 mm × 50 mm, Waters) as the stationary phase, 0.1% formic acid in water (A) / 0.1% formic acid in acetonitrile (B) as the mobile phase, a flow of 0.8 mL min‒1, and the
(§35) The metabolic stability of the compounds was calculated from the logarithm of the remaining compound at each of the time points studied.

[4] = Microsomal stability, rat liver microsomes; type: in vitro ADME; conditions: rat, liver microsomes (pooled), pH 7.4; for remaining at 1 h, 0.05 µM: after 1 h of incubation at 37 °C, read-out: % remaining compound, rat microsomes
Procedure: as §31, §32, §33, §34, §35

SH-SY5Y cells = test: Cytotoxicity in SH-SY5Y cells, propidium iodide stain; type: cell-based, human; conditions: for toxicity to SH-SY5Y cells LD50: propidium iodide staining after 24 h of incubation, mean ± SD; for LD50 (SH-SY5Y): supplementary CSV
Procedure: Cytotoxicity in SH-SY5Y cells. The cytotoxicity of the target compounds was evaluated in
Minimum Essential Medium / Ham’s-F12 (1:1, v/v) medium (Biowest), supplemented with
non-essential amino acids, 10% fetal bovine serum, 1 mM glutamine and 50 µg mL‒1
gentamycin (all reagents from Gibco, Thermo Fisher Scientific). For the experiments, cells
were seeded at 3 × 10^5 cells mL‒1 (100 µL per well) in 96-well plates (Nunc). After 24 h, the
test compounds were added concentrated from stock solutions in DMSO and culture medium
to triplicate wells to obtain the final different concentrations up to 100 µM in 0.1% DMSO.
Compounds were incubated for further 24 h. At termination, cytotoxicity was analyzed by the
propidium iodide (PI) fluorescence stain assay. All compounds were tested in three
independent experiments using different cell passages. The PI assay measures cell death. PI
enters into the cells with damaged membranes and greatly increases the fluorescence upon
binding to DNA. PI reagent (Molecular Probes) at the final concentration of 7.5 µg mL‒1 was
added to the cells and incubated for 1 h. The resulting fluorescence was measured by a Flx-
death induced by the compounds was calculated from to the fluorescence of treated cells (Ft)
relative to that of control cells (Fmin) and cells incubated with Triton X100 (Fmax) as the 0%
and 100% cell death, respectively [% = ((Ft-Fmin)/(Fmax-Fmin)) × 100]. All compounds
were tested in three independent experiments using different cell passages. LC50 values were
calculated for each experiment and the results are expressed as mean ± SD.

[5] = Kinetic aqueous solubility screen (light scattering); conditions: 1% DMSO / 99% PBS
Procedure: Aqueous solubility screen. The kinetic aqueous solubility of the target compounds was
as §32
Compostela, Spain). Ten mM stock solutions of the tested compounds were serially diluted,
NEPHELOstar Plus reader (BMG LABTECH). The results were adjusted to a segmented
linear regression to obtain the maximum concentration in which the compounds were soluble.

[6] = Microsomal stability, mouse liver microsomes; type: in vitro ADME; conditions: mouse, liver microsomes (pooled), pH 7.4; for microsomal CLint at 1 h, 0.05 µM / half-life at 1 h, 0.05 µM: 37 °C; for half-life at 1 h, 0.05 µM: read-out: t1/2, mouse microsomes; for remaining at 1 h, 0.05 µM: after 1 h of incubation at 37 °C, read-out: % remaining compound, mouse microsomes
Procedure: as §31, §32, §33, §34, §35

[7] = human serum BChE, mean ± SEM, n.a. = not active, % inhibition <10% at 100 μM
[8] = 37 °C, read-out: t1/2, human microsomes
[9] = 37 °C, read-out: t1/2, rat microsomes

T4 sequence (P06276 29-602): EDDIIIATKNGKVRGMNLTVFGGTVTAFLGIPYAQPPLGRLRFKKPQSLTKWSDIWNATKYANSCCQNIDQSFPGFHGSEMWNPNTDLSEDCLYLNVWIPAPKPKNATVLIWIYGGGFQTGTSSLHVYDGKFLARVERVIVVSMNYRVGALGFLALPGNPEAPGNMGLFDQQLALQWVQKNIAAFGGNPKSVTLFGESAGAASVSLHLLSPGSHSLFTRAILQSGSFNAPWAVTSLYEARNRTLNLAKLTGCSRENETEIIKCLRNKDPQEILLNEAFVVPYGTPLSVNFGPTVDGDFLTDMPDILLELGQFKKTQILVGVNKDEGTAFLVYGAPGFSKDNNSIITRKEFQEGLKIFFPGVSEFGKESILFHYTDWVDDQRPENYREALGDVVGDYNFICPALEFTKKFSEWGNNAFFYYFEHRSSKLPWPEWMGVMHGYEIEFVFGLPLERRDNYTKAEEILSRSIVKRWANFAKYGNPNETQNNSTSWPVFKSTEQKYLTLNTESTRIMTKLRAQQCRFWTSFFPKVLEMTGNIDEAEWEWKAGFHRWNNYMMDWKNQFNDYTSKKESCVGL
T5 sequence (P22303 32-614): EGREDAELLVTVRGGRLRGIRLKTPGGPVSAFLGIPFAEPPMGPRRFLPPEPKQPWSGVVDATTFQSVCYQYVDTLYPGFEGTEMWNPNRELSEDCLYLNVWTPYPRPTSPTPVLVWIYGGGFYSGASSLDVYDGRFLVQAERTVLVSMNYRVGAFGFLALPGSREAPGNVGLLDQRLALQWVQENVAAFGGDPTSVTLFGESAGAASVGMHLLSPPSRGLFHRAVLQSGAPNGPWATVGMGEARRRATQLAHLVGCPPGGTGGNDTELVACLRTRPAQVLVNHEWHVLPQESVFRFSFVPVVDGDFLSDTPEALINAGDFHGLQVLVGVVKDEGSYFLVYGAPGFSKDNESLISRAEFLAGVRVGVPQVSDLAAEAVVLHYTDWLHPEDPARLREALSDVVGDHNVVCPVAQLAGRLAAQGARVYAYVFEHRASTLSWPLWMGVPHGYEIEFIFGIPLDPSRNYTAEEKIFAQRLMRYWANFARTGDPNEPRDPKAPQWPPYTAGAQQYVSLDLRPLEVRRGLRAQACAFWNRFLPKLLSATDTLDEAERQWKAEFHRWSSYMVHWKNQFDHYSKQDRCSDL
Chain of PAS of Electrophorus electricus AChE (EeAChE) (O42275 24-633): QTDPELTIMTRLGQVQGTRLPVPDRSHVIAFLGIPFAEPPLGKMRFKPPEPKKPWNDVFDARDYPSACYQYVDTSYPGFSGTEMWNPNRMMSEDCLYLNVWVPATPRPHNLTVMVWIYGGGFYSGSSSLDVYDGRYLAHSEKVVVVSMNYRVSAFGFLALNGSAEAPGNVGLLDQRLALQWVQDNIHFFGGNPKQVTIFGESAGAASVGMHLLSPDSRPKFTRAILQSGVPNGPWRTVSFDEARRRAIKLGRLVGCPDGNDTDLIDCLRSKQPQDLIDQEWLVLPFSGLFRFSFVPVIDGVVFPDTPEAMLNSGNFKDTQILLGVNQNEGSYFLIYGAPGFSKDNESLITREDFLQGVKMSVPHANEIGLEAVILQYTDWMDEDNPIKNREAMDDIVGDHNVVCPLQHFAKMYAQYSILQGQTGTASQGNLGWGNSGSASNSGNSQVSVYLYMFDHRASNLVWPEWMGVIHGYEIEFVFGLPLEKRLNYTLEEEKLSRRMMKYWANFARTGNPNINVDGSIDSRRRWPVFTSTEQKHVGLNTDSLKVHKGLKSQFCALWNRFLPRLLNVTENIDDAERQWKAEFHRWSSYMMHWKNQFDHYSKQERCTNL

Row | Structure (SMILES) | IC50 (recombinant mouse sEH) [nM] | IC50 (recombinant human sEH) [nM] | IC50 (recombinant mouse AChE) [nM] | IC50 (human serum BChE; [7]) [nM] | IC50 (recombinant human AChE) [nM] | Papp [2] [×10⁻⁶ cm/s] | microsomal CLint at 1 h ([3]; 37 °C) [µL/min/mg] | remaining at 1 h [3] [%] | BBB permeation class [2] | microsomal CLint at 1 h, 0.05 µM ([4]; 37 °C) [µL/min/mg] | remaining at 1 h, 0.05 µM [4] [%] | toxicity to SH-SY5Y cells LD50 (SH-SY5Y cells) [µM] | LD50 (SH-SY5Y) (SH-SY5Y cells) | solubility at 2 h [5] [µM] | microsomal CLint at 1 h, 0.05 µM [6] [µL/min/mg] | half-life at 1 h, 0.05 µM [6] [min] | remaining at 1 h, 0.05 µM [6] [%] | other results
1 | CC1=C[C@H]2Cc3nc4cc(Cl)ccc4c(NCCCCC(=O)N4CCC(NC(=O)Nc5ccc(OC(F)(F)F)cc5)CC4)c3[C@@H](C1)C2 [(+)-15, (+)-(7R,11R)-1-{1-{5-[(3-Chloro-6,7,10,11-tetrahydro-9-methyl-7,11-methanocycloocta[b]quinolin-12-yl)amino]pentanoyl}piperidin-4-yl}-3-[4-(trifluoromethoxy)phenyl]urea] | 14.5 | 3.1 | 102 ± 18 | 179 ± 26 | 1660 ± 450 |  |  |  |  |  |  |  |  |  |  |  |  | 
2 | CC1=C[C@H]2Cc3nc4cc(Cl)ccc4c(N)c3[C@@H](C1)C2 [(+)-3, (+)-huprine Y, reference compound] | > 50000 | > 50000 | 474 ± 22 |  |  |  |  |  |  |  |  |  |  |  |  |  |  | IC50 (human serum BChE): 170 ± 17 nM
3 | CC[N+](C)(CC)CCC[n+]1c(-c2ccccc2)c2cc(N)ccc2c2ccc(N)cc21 [propidium, propidium iodide] |  |  |  |  |  |  |  |  |  |  |  |  |  |  |  |  |  | Kd [1]: 700 nM
4 | CN1C(C(=O)Nc2ccccn2)=C(O)c2ccccc2S1(=O)=O [Piroxicam, reference compound] |  |  |  |  |  | 2.3 ± 0.1 |  |  |  |  |  |  |  |  |  |  |  | 
5 | Nc1c2c(nc3cc(Cl)ccc13)CCCC2 [compound 2, 6-chlorotacrine, reference compound] | > 50000 | 49100 | 19.8 ± 0.7 |  |  |  |  |  |  |  |  |  |  |  |  |  |  | 
6 | CC1=C[C@@H]2Cc3nc4cc(Cl)ccc4c(NCCCCC(=O)N4CCC(NC(=O)Nc5ccc(OC(F)(F)F)cc5)CC4)c3[C@H](C1)C2 [(−)-15, (−)-(7S,11S)-1-{1-{5-[(3-Chloro-6,7,10,11-tetrahydro-9-methyl-7,11-methanocycloocta[b]quinolin-12-yl)amino]pentanoyl}piperidin-4-yl}-3-[4-(trifluoromethoxy)phenyl]urea] | 34.3 | 0.4 | 2.61 ± 0.16 | 615 ± 34 | 1.94 ± 0.67 | 9.9 ± 0.3 | 144 | 1 | CNS+ (High permeation, CNS+: Pe > 5.2) | 54 | 4 | >100 | > 100 ?M | 5.6 (≈ 3.75 µg/mL) | 172 | 4 | 0.4 | half-life at 1 h [3, 8]: 5 min; hsEH potency relative to its enantiomer (recombinant human sEH; enantioselectivity): 8 fold; higher hsEH potency relative to TPPU (recombinant human sEH): 9 fold; half-life at 1 h, 0.05 µM [4, 9]: 13 min; hAChE potency relative to its enantiomer (recombinant human AChE; enantioselectivity): 850 fold
7 | O=C(Nc1ccc(OC(F)(F)F)cc1)NC1CCN(C(=O)CCNc2c3c(nc4cc(Cl)ccc24)CCCC3)CC1 [12a, 1-{1-{3-[(6-Chloro-1,2,3,4-tetrahydroacridin-9-yl)amino]propanoyl}piperidin-4-yl}-3-[4-(trifluoromethoxy)phenyl]urea] | 12.1 | 0.4 | 35.4 ± 2 | 947 ± 6 | 14.5 ± 0.3 | 9.2 ± 0.2 | 57 | 4 | CNS+ (High permeation, CNS+: Pe > 5.2) | 56 | 4 | 92.8 ± 52.3 | 92.8 ± 52.3 ?M | 42.6 (≈ 25.1 µg/mL) | 109 | 6 | 1 | half-life [3, 8]: 12 min; higher hsEH potency relative to TPPU (recombinant human sEH): 9 fold; half-life at 0.05 µM [4, 9]: 12 min
8 | CC1=C[C@@H]2Cc3nc4cc(Cl)ccc4c(N)c3[C@H](C1)C2 [(−)-3, (−)-huprine Y, reference compound] | > 50000 | 41000 | 0.62 ± 0.03 |  |  |  |  |  |  |  |  |  |  |  |  |  |  | IC50 (human serum BChE): 222 ± 17 nM
9 | O=C(Nc1ccc(OC(F)(F)F)cc1)NC1CCN(C(=O)CCCNc2c3c(nc4cc(Cl)ccc24)CCCC3)CC1 [12b, 1-{1-{4-[(6-Chloro-1,2,3,4-tetrahydroacridin-9-yl)amino]butanoyl}piperidin-4-yl}-3-[4-(trifluoromethoxy)phenyl]urea] | 15 | 1 | 4.01 ± 0.24 | 416 ± 35 | 2.71 ± 0.06 | 9.1 ± 0.1 | 19 | 34 | CNS+ (High permeation, CNS+: Pe > 5.2) | 69 | 2 | >100 | > 100 ?M | 13.7 (≈ 8.28 µg/mL) | 78 | 9 | 1 | half-life at 1 h [3, 8]: 36 min; half-life at 1 h, 0.05 µM [4, 9]: 10 min; hAChE potency relative to 6-chlorotacrine (recombinant human AChE): 5 fold
